This is an account of results in patent US8329218B2, “Unusually stable glasses and methods for forming same” (Wisconsin Alumni Research Foundation, priority 2007, dated 2012).

Data set [1] can be described thus: Differential scanning calorimetry of glass stability (onset temperature, fictive temperature, θK). It is filed as physicochemical. The conditions noted are these: for Tg (onset temperature) of ordinary glass: ordinary glass cooled from the liquid; for enthalpies and Tfic values of vapor-deposited samples relative to ordinary glass: samples prepared by vapor deposition. The source says: Differential scanning calorimetry (DSC) was used to examine the kinetics and thermodynamics of vapor-deposited samples created by heating crystalline TNB or IMC in a vacuum. To move a sample from the glass to the supercooled liquid, energy must be supplied to the sample. In DSC, this energy is supplied as heat to the system as the temperature is ramped from a temperature below the glass transition into the supercooled liquid regime. For an ordinary glass that is cooled from the melt the amount of energy needed to do this is observed by a change in heat capacity at Tg. […] An endothermic heat characteristic will be observed in these cases, often referred to as an enthalpy overshoot, where the size and temperature of the overshoot indicate the amount of stability.
This scan was continued to above the melting point, after which the sample was cooled at 40 K/min into the glass and then scanned again to yield the leftmost curve. This latter-curve represents the behavior of an ordinary glass of TNB, with Tg=347 K, as defined by the onset temperature; it is consistent with previously reported results for TNB (C. M. Whitaker, R. J. McMahon J. Phys. Chem. 100, 1081 (1996); J. H. Magill, J. Chem. Phys. 47, 2802 (1967)). The DSC instrument was calibrated using an indium standard.
The fictive-temperature (Tfic) of the glasses, as defined below, was calculated in order to quantify the thermodynamic stability of the vapor-deposited materials. Lower Tfic values indicate a lower position on the energy landscape. The enthalpy for TNB and IMC samples, obtained by integrating Cp, is plotted in FIG. 1B. […] The supercooled liquid enthalpy curve was calculated by determining the temperature dependence of the enthalpy between the glass transition and the melting point and extrapolating this dependence to lower temperatures. […] Based upon aging experiments on TNB (D. J. Plazek, J. H. Magill, J. Chem. Phys. 45, 3038 (1966)), it is estimated that it would require at least 40 years of annealing an ordinary glass to match Tfic for the vapor-deposited sample shown in FIG. 1.
The Kauzmann temperature and θK were also calculated. For TNB, Magill estimated TK=270 K (J. H. Magill, J. Chem. Phys. 47, 2802 (1967)). […] In comparison, annealing the ordinary glass at 296 K (θK=0.09) or 328 K (θK=0.22) is relatively ineffective. […] Of annealing achieved θK≦0.17 (A. J. Kovacs, Fortschr Hochpolym-Forsch. 3, 394 (1963)).

The nature of data set [2]: Water uptake: weight change as a function of relative humidity (sorption apparatus). The data set is classed as physicochemical. The method, then: The stable glass was prepared by vapor depositing IMC onto an aluminum substrate using the method described in Example 1, above. The substrate was held at a temperature of 265 K and a deposition rate of 2 Å/s was used. For comparison, two “ordinary” glass samples were also prepared. These were formed by vapor-deposition at 315 K. In addition, water uptake was measured for a crystalline IMC glass. Weight change as a function of relative humidity was measured for the ordinary glasses, stable glass, and crystalline IMC. The multiple curves for a given sample are from cycles where the relative humidity (RH) was stepped up and back down. A TA instruments Q5000SA sorption apparatus was used to induce relative humidity step changes and measure the steady-state weight change response. For the crystalline IMC (lowest curve), at 50% RH less than 0.1% weight change was observed. By contrast: the ordinary glass (uppermost curves) absorbed nearly one weight percent at a RH of 50%. The measured percent weight change observed here matches previous data obtained for ordinary IMC glasses and crystalline IMC by Zografi and coworkers. (See Andronis et al., J. Pharm. Sci. 86, 346 (1997).)

A short description of data set [3]: Quasi-isothermal temperature modulated DSC: transformation of glass to supercooled liquid. The data set is classed as physicochemical. The conditions noted are these: ordinary glass; Tanneal 319 K. The protocol: The stable glass was prepared by vapor depositing IMC onto an aluminum substrate using the method described in Example 1, above. The substrate was held at a temperature of 265 K and a deposition rate of 2 Å/s was used. For comparison, an “ordinary” glass sample was also prepared by melting the vapor-deposited IMC glass and cooling the resulting liquid at a rate of 40 K/min.
The kinetic stability of the stable IMC glass was explored in quasi-isothermal temperature modulated differential scanning calorimetry (qi-TMDSC) experiments. In these experiments a TA instruments Q2000 DSC was used. After vapor deposition, the samples were placed in the DSC at room temperature. A temperature jump from room temperature to the annealing-temperature was carried out. At room temperature the sample was a glass, and the annealing temperature was chosen such that it was higher than the ordinary glass Tg (315 K). The temperature jump defines t=0. In addition to the instantaneous temperature jump a small sinusoidal temperature fluctuation was imposed (amplitude: 0.5: K, period: 60 seconds) which allows; one to measure the reversing heat capacity as a function of time.

Data set [4] in a line: Neutron reflectivity of interdiffusion in h-TNB/d-TNB multilayer films during annealing. The data set is classed as physicochemical. The method, then: Neutron reflectivity was used to characterize diffusion in ordinary and stable glasses of TNB. The high spatial resolution and large contrast in the scattering length of neutrons for hydrogen and deuterium nuclei make this an excellent technique for quantifying molecular motion. The neutron reflectivity experiments were conducted at the NIST Center for Neutron Research at the National Institute of Standards and Technology (NCNR-NIST). The NG7 horizontal reflectometer utilized a 4.76 Å collimated neutron beam, with a wavelength divergence of 0.18 Å. The angular divergence of the beam was varied through the reflectivity scan and this provided a relative q resolution Δq/q=0.04 (q=4π sin θ/λ, where θ is the incident and final angle with respect to the surface of the film, and where λ is the neutron wavelength).
For the neutron reflectivity measurements, multilayer thin films of protio TNB (h-TNB) and deuterio TNB (d-TNB) were deposited onto 76-mm-diameter, 3-mm-thick silicon-wafers (Wafer World and Virginia Semiconductor), as described in S. F. Swallen, et al., J. Chem. Phys. 124, 184501 (2006). The silicon was used as received, retaining the native oxide coating. The deposition rate was typically 0.1 nm/s. Prior to deposition, the substrate was spin-coated with a 10-nm polystyrene layer (Polymer Source, ˜10^6 g/mol), which acted to minimize crystallization and dewetting of the TNB film during annealing. The polystyrene was made from a mixture of protio and perdeuterio chains, in order, to approximately match the neutron scattering length density of the first h-TNB layer. Following deposition, the samples were slowly cooled and held at room temperature for 1 to 5 days before neutron reflectivity measurements were obtained. The specular reflectivity R was measured as a function of beam angle relative to the sample surface. This value, multiplied by q^4 for clarity, is plotted as a function of the wavevector q. Reflectivity curves for samples vapor-deposited at different temperatures display diffraction peaks; as expected for the symmetric multi-layer samples, only odd diffraction orders are, present. For samples deposited at low temperature, diffraction can be observed up to the 13th order, indicating very sharp h-TNB/d-TNB interfaces. (S. F. Swallen et al; Science 315, 353 (2.007)). […]
FIG. 4A illustrates the behavior of an ordinary glass annealed near Tg; as shown elsewhere (S. F. Swallen et al., J. Chem. Phys. 124, 184501 (2006)), interdiffusion in this sample is characteristic of the equilibrium liquid. […] The magnitude of this stability can be quantified in terms of the equilibrium structural relaxation time τα, known to be 250 s at 342 K (R. Richert, K. Duvvuri, L.-T. Duong, J. Chem. Phys. 118, 1828 (2003)). […]

For data set [5] the following is noted: at 342 K; cited from earlier work.
For data set [6] the following is noted: estimated by Magill; cited from earlier work.
Data set [7] is described as follows: Density of vapor-deposited films by x-ray reflectivity. The data set is classed as physicochemical. The conditions noted are these: deposition at 296 K. The source says:
The present vapor-deposition methods can also create unusually dense glasses. The ratio of the density of vapor-deposited TNB (ρVD) to that of the ordinary glass (ρo, prepared by cooling from the liquid), increases as the deposition temperature is lowered toward 0.85 Tg (FIG. 2). Also shown as the solid line is a prediction of the density if vapor-deposition produced an equilibrium supercooled liquid at the deposition temperature (D. J. Plazek, J. H. Magill, J. Chem. Phys. 45, 3038 (1966)). For this range of deposition temperatures, the samples nearly achieve this upper bound for density. If a fictive temperature is defined based upon density, deposition at 296 K produces Tfic≈300 K, slightly lower than the fictive temperature based upon the enthalpy. Fictive temperatures based on densities can be determined from FIG. 2, by horizontally shifting the points to overlap with the line shown.
The data in FIG. 2 were determined from x-ray reflectivity measurements made on as-prepared films of TNB and on the same films after thermal equilibration above Tg. All x-ray data was taken at room temperature. […] Since the area of the film was the same before and after annealing, the ratio of the densities equals the inverse of the ratio of the thicknesses, and this is reported in FIG. 2. […]

Data set [8] in a line: DSC of glasses made in a sublimation apparatus. The conditions noted are these: vapor deposition by sublimation, 8 mTorr.
From the text: A glass container that could be evacuated was used as a sublimation chamber. The lower part of the container held the material to be sublimed (“source material”). A condenser cooled by a circulating coolant was positioned above the source material. At the bottom of the condenser were attached a silicon wafer or aluminum DSC pans, which serves as surfaces for vapor deposition. The source material was heated to sublime by submerging the bottom the sublimation apparatus in an oil bath. The vapor produced by sublimation was deposited on the cooled collecting surfaces. The vacuum maintained during the operation of this device was 8 mTorr. A metal plate was placed over the source material until vapor deposition was to begin, at which time it was withdrawn magnetically. The sublimation rate was controlled by varying the oil bath temperature.
Curve 1 corresponds to a glass prepared by vapor deposition onto a DSC pan held, at approximately Tg−50 K at a rate of ˜0.2 nm/s. Curve 2 corresponds to an ordinary glass, produced by cooling the liquid at a rate of 10 K/min. […] Curve 1 corresponds to a glass prepared by vapor deposition onto a DSC pan at approximately Tg−50 K at a rate of ˜0.4 nm is. […] Curve 2 corresponds to an ordinary glass produced by cooling the liquid at 10 K/min.

With `COc1ccc2c(c1)c(CC(=O)O)c(C)n2C(=O)c1ccc(Cl)cc1` [IMC, indomethacin], the “Tg (onset temperature) of ordinary glass” value in data set [1] is reported as 315 K. For the same compound, in data set [1], the “enthalpies and Tfic values of vapor-deposited samples relative to ordinary glass” value is on record as “considerably lower”. Moreover, the “weight change (water uptake)” value was “less than 0.1%” in data set [2] (crystalline, 50% RH); “one” in data set [2] (ordinary glass (vapor-deposited at 315 K), RH of 50%); 0.15 weight percent in data set [2] (stable glass (vapor-deposited at 265 K, 2 Å/s), relative humidity of 50%). Moreover, in data set [2] (relative humidity of 50%), the “water uptake of stable glass relative to ordinary glass” value is listed as “one sixth”. Further, the “response to temperature jump (transformation to supercooled liquid)” value in data set [3] is given as “nearly instantaneous”.

For `c1ccc2cc(-c3cc(-c4cccc5ccccc45)cc(-c4cccc5ccccc45)c3)ccc2c1` [TNB, 1,3-bis-(1-naphthyl)-5-(2-naphthyl)benzene], the “annealing time of an ordinary glass required to match Tfic of the vapor-deposited sample” value in data set [1] (estimated from aging experiments) is reported as “at least 40 years”. The onset temperature in data set [1] (glass vapor-deposited onto substrate at 296 K, DSC heating 10 K/min) amounted to 363 K. In addition, the θK in data set [1] (ordinary glass annealed at 296 K) is reported as 0.09; in data set [1] (ordinary glass annealed at 328 K), 0.22; in data set [1] (vapor deposition at 296 K (0.85Tg)), 0.43. Further, the “Tg (onset temperature) of ordinary glass” value in data set [1] is 347 K. Also, in data set [1], the “enthalpies and Tfic values of vapor-deposited samples relative to ordinary glass” value is “considerably lower”. Further, the “interdiffusion of h-TNB/d-TNB during annealing” value in data set [4] (deposited at 296 K, 16 hours of annealing at 342 K) is listed as “no detectable interdiffusion occurred”; in data set [4] (deposited at 330 K, 8 hours of annealing at 342 K), “substantial interfacial broadening had occurred”. For the same compound, in data set [4] (sample deposited at 0.85Tg, annealed at 342 K), the “induction time before diffusion” value is listed as “exceeds 200 τα”. Moreover, the surface diffusion coefficient in data set [4] (vapor-deposited at 296 K, 0.1 nm/sec, order-of-magnitude estimate) is 5×10^−16 cm^2/sec. In addition, in data set [5], the “equilibrium structural relaxation time τα” value is recorded as 250 s. In addition, the “Kauzmann temperature TK” value in data set [6] is recorded as 270 K. The “Tfic (fictive temperature based upon density)” value in data set [7] is reported as “≈ 300 K”.

`CCC1(c2ccccc2)C(=O)NC(=O)NC1=O` [phenobarbital]: the “stability of glass made in sublimation apparatus” value in data set [8] is “low fictive temperatures”.
